ChEMBL document CHEMBL1201862, “PubChem BioAssay data set” (2004)
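Interpolation was linear, between the two tested concentrations surrounding the appropriate level; five concentrations were tested over 48 hours in 96-well plates. Abbreviation: GI50, concentration required for 50% inhibition of growth.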 Activity calls are given as the source filed them. Cut-off read from the data, not from the text of the source: active = GI50 up to about 1.1 µM and inactive = higher.

Experiments:
Test in all cases: NCI tumour cell line growth inhibition, 48 h
UACC-257 = tested on: UACC-257
SF-295 = tested on: SF-295
SR = tested on: SR
SF-539 = tested on: SF-539
MOLT-4 = tested on: MOLT-4
EKVX = tested on: EKVX
786-0 = tested on: 786-0
HCT-15 = tested on: HCT-15
NCI-H226 = tested on: NCI-H226
Malme-3M = tested on: Malme-3M
A549 = tested on: A549
SK-MEL-2 = tested on: SK-MEL-2
SK-MEL-28 = tested on: SK-MEL-28
RPMI-8226 = tested on: RPMI-8226
HCC 2998 = tested on: HCC 2998
SK-OV-3 = tested on: SK-OV-3
SK-MEL-5 = tested on: SK-MEL-5
UACC-62 = tested on: UACC-62
NCI/ADR-RES = tested on: NCI/ADR-RES
MDA-MB-435 = tested on: MDA-MB-435

| Compound | GI50 (UACC-257) | GI50 (SF-295) | GI50 (SR) | GI50 (SF-539) | GI50 (MOLT-4) | GI50 (EKVX) | GI50 (786-0) | GI50 (HCT-15) [µM] | GI50 (NCI-H226) | GI50 (Malme-3M) | GI50 (A549) | GI50 (SK-MEL-2) | GI50 (SK-MEL-28) | GI50 (RPMI-8226) | GI50 (HCC 2998) | GI50 (SK-OV-3) | GI50 (SK-MEL-5) | GI50 (UACC-62) | GI50 (NCI/ADR-RES) | GI50 (MDA-MB-435) |
| --- | --- | --- | --- | --- | --- | --- | --- | --- | --- | --- | --- | --- | --- | --- | --- | --- | --- | --- | --- | --- |
| O=c1c2ccccc2[nH]c(=S)n1-c1ccc(Br)cc1 | > 100 µM (inactive) | 66.8 µM (inactive) | > 100 µM (inactive) | > 100 µM (inactive) | 76 µM (inactive) | > 100 µM (inactive) | 80.7 µM (inactive) | 71.9 | > 100 µM (inactive) | > 100 µM (inactive) | 33.3 µM (inactive) | > 100 µM (inactive) | > 100 µM (inactive) | 40.1 µM (inactive) | > 100 µM (inactive) | – | – | – | – | – |
| COC(=O)[C@@H]1C(=O)O[C@@H](c2cc(OC)c(OC)cc2OC)[C@@H]1C(=O)OC.COC(=O)[C@H]1C(=O)O[C@@H](c2cc(OC)c(OC)cc2OC)[C@@H]1C(=O)OC | > 100 µM (inactive) | > 100 µM (inactive) | > 100 µM (inactive) | > 100 µM (inactive) | > 100 µM (inactive) | > 100 µM (inactive) | > 100 µM (inactive) | > 100 | > 100 µM (inactive) | > 100 µM (inactive) | > 100 µM (inactive) | – | > 100 µM (inactive) | > 100 µM (inactive) | > 100 µM (inactive) | > 100 µM (inactive) | > 100 µM (inactive) | > 100 µM (inactive) | – | – |
| COc1ccc(NC(=O)CC2S/C(=N\c3ccccc3C)NC2=O)c([N+](=O)[O-])c1 (stereo not drawn) | > 100 µM (inactive) | > 100 µM (inactive) | > 100 µM (inactive) | > 100 µM (inactive) | > 100 µM (inactive) | – | > 100 µM (inactive) | > 100 | > 100 µM (inactive) | > 100 µM (inactive) | > 100 µM (inactive) | > 100 µM (inactive) | > 100 µM (inactive) | > 100 µM (inactive) | > 100 µM (inactive) | > 100 µM (inactive) | – | > 100 µM (inactive) | – | – |
| C[n+]1ccc(Nc2ccc(NC(=O)c3ccc(Nc4cc[n+](C)c5ccc([N+](=O)[O-])cc45)cc3[N+](=O)[O-])cc2)cc1 | 23.6 µM (inactive) | 27.8 µM (inactive) | > 100 µM (inactive) | 27 µM (inactive) | 35.3 µM (inactive) | 47.6 µM (inactive) | 27.4 µM (inactive) | 61.2 | 50.4 µM (inactive) | 19.5 µM (inactive) | 22 µM (inactive) | 50.1 µM (inactive) | 28.4 µM (inactive) | 13.3 µM (inactive) | – | 57.8 µM (inactive) | 23.3 µM (inactive) | 31.3 µM (inactive) | > 52.4 µM (inactive) | – |
| Cc1ccc2c(c1)SC(c1cc3c(cc1Br)OCO3)S2 (stereo not drawn) | > 31.6 µM (inactive) | > 31.6 µM (inactive) | 23.3 µM (inactive) | > 31.6 µM (inactive) | 31.4 µM (inactive) | > 31.6 µM (inactive) | > 31.6 µM (inactive) | 25.4 | > 31.6 µM (inactive) | > 31.6 µM (inactive) | > 31.6 µM (inactive) | > 31.6 µM (inactive) | > 31.6 µM (inactive) | 18.5 µM (inactive) | 31 µM (inactive) | > 31.6 µM (inactive) | > 31.6 µM (inactive) | > 31.6 µM (inactive) | – | – |
| CCOC(=O)c1c(/C=N\Nc2ccccc2)nc2ccccc2c1-c1ccccc1 | 70.3 µM (inactive) | 61.5 µM (inactive) | 19.2 µM (inactive) | 68.5 µM (inactive) | 20.7 µM (inactive) | 61.9 µM (inactive) | 40.6 µM (inactive) | 13.6 | 45.7 µM (inactive) | 35.1 µM (inactive) | 50.9 µM (inactive) | 40.8 µM (inactive) | 70.8 µM (inactive) | 20.1 µM (inactive) | 21.8 µM (inactive) | > 100 µM (inactive) | 31.2 µM (inactive) | 25 µM (inactive) | – | – |
| CNc1ncnc2c1cnn2Cc1cn(COCC(O)CO)nn1 (stereo not drawn) | > 100 µM (inactive) | > 100 µM (inactive) | – | > 100 µM (inactive) | – | > 100 µM (inactive) | > 100 µM (inactive) | > 100 | > 100 µM (inactive) | – | > 100 µM (inactive) | > 100 µM (inactive) | > 100 µM (inactive) | > 100 µM (inactive) | > 100 µM (inactive) | > 100 µM (inactive) | > 100 µM (inactive) | > 100 µM (inactive) | > 100 µM (inactive) | > 100 µM (inactive) |
| O=CN1CCN(C=S)CC1 | > 100 µM (inactive) | > 100 µM (inactive) | 54.5 µM (inactive) | > 100 µM (inactive) | > 100 µM (inactive) | > 100 µM (inactive) | > 100 µM (inactive) | > 100 | > 100 µM (inactive) | > 100 µM (inactive) | > 100 µM (inactive) | – | > 100 µM (inactive) | > 100 µM (inactive) | > 100 µM (inactive) | > 100 µM (inactive) | > 100 µM (inactive) | > 100 µM (inactive) | – | – |
| Cc1cccc(C)c1NC(=O)CCc1nnc2s/c(=C\c3ccc(Cl)cc3)c(=O)n12 | > 100 µM (inactive) | 70.6 µM (inactive) | > 100 µM (inactive) | 40.6 µM (inactive) | > 100 µM (inactive) | > 100 µM (inactive) | 44 µM (inactive) | 19.1 | 97.5 µM (inactive) | > 100 µM (inactive) | > 100 µM (inactive) | 60.5 µM (inactive) | > 100 µM (inactive) | 61 µM (inactive) | > 100 µM (inactive) | 31.8 µM (inactive) | > 100 µM (inactive) | > 100 µM (inactive) | – | – |
| Cn1c(=O)oc2cc(C3CCC(=O)N3Cc3csc(-c4ccccc4)n3)ccc21 (stereo not drawn) | > 100 µM (inactive) | > 100 µM (inactive) | 63.7 µM (inactive) | > 100 µM (inactive) | 58.2 µM (inactive) | > 100 µM (inactive) | > 100 µM (inactive) | > 100 | > 100 µM (inactive) | > 100 µM (inactive) | > 100 µM (inactive) | > 100 µM (inactive) | > 100 µM (inactive) | > 100 µM (inactive) | > 100 µM (inactive) | > 100 µM (inactive) | > 100 µM (inactive) | > 100 µM (inactive) | – | – |
| CCC1C(C(=O)Nc2ccccc2C)=C(C)NC(C)=C1c1ccccc1C (stereo not drawn) | > 100 µM (inactive) | > 100 µM (inactive) | 2.88 µM (inactive) | > 100 µM (inactive) | > 100 µM (inactive) | > 100 µM (inactive) | > 100 µM (inactive) | > 40.1 | > 100 µM (inactive) | > 100 µM (inactive) | > 78 µM (inactive) | > 100 µM (inactive) | > 100 µM (inactive) | 31.8 µM (inactive) | > 100 µM (inactive) | > 100 µM (inactive) | > 100 µM (inactive) | > 100 µM (inactive) | – | – |
| COc1cc(-c2n[nH]cc2CCCC(=O)Nc2ccccc2[N+](=O)[O-])ccc1O | > 100 µM (inactive) | > 100 µM (inactive) | 46.9 µM (inactive) | 74.5 µM (inactive) | 42.2 µM (inactive) | 64.9 µM (inactive) | > 100 µM (inactive) | 64.6 | > 100 µM (inactive) | 19.2 µM (inactive) | 73.8 µM (inactive) | – | > 100 µM (inactive) | 40.2 µM (inactive) | > 100 µM (inactive) | > 100 µM (inactive) | 61.4 µM (inactive) | 67.9 µM (inactive) | – | – |
| CC(C)(C)OC(=O)NC(C)(C)C(=O)NCCC(=O)O | > 100 µM (inactive) | > 100 µM (inactive) | – | > 100 µM (inactive) | > 100 µM (inactive) | > 100 µM (inactive) | > 100 µM (inactive) | > 100 | > 100 µM (inactive) | – | > 100 µM (inactive) | > 100 µM (inactive) | > 100 µM (inactive) | > 100 µM (inactive) | – | 74.6 µM (inactive) | > 100 µM (inactive) | > 100 µM (inactive) | > 100 µM (inactive) | > 100 µM (inactive) |
| COC(=O)C(=O)C(CC(=O)Nc1c(C)cccc1C)C(=O)OC (stereo not drawn) | > 100 µM (inactive) | > 100 µM (inactive) | > 100 µM (inactive) | > 100 µM (inactive) | > 100 µM (inactive) | > 100 µM (inactive) | > 100 µM (inactive) | > 100 | > 100 µM (inactive) | > 100 µM (inactive) | > 100 µM (inactive) | > 100 µM (inactive) | > 100 µM (inactive) | > 100 µM (inactive) | > 100 µM (inactive) | > 100 µM (inactive) | > 100 µM (inactive) | > 100 µM (inactive) | – | – |
| CN(O)C(=O)CCC(NC(=O)CCC(N)C(=O)O)C(=O)NCC(=O)O (stereo not drawn) | > 100 µM (inactive) | > 100 µM (inactive) | – | > 100 µM (inactive) | > 100 µM (inactive) | > 100 µM (inactive) | > 100 µM (inactive) | > 100 | > 100 µM (inactive) | – | > 100 µM (inactive) | > 100 µM (inactive) | > 100 µM (inactive) | > 100 µM (inactive) | > 100 µM (inactive) | > 100 µM (inactive) | > 100 µM (inactive) | > 100 µM (inactive) | > 100 µM (inactive) | > 100 µM (inactive) |
| COC(=O)C1C(C(=O)OC)C2(OC)c3ccccc3-c3ccccc3C12 (stereo not drawn) | 24.2 µM (inactive) | 38.2 µM (inactive) | 15.5 µM (inactive) | 66.5 µM (inactive) | 12.1 µM (inactive) | 28.7 µM (inactive) | 75.2 µM (inactive) | 28.4 | 49.5 µM (inactive) | 47.9 µM (inactive) | 36.4 µM (inactive) | 8.51 µM (inactive) | 90.2 µM (inactive) | 9.89 µM (inactive) | 64.3 µM (inactive) | 80 µM (inactive) | 18.7 µM (inactive) | 26.1 µM (inactive) | – | – |
